Test results: patent US8986696B2, “Trans-capsular administration of p38 map kinase inhibitors into orthopedic joints” (DePuy Mitek, Inc., priority 2007, dated 2015)

Experiments:
[1] = tested on: IL-1β-stimulated GAG release, bovine chondrocyte pellets / ARC tissues; assay: chondrocyte pellet culture model: GAG degradation; assay type: cell-based
Text: (§1) Calf articular cartilage was obtained from the knee joints of eight to twelve month old animals and was processed within twenty-four hours after sacrifice. After removal of muscle and ligament, the cartilage was kept moist using phosphate buffer solution (PBS) to prevent tissue dehydration, and was aseptically peeled off from subchondral bone with a scalpel, and the cartilage pieces were further minced into smaller pieces (˜0.3-0.5×˜0.2-0.5 cm cubes). […] Chondrocytes were then enzymatically isolated from the tissue by incubation for overnight at 37° C. with gentle agitation in 0.2% collagenase in Dulbecco's modified eagle media (DMEM). After removal of tissue debris by filtration through cell strainer and the residual collagenase by 3× wash in PBS, cells were finally resuspended at a density of 2.5×10^6 cells/ml in chondrocyte medium. A 1 ml aliquot of the cell suspension was dispensed into either a 15 ml Falcon centrifuge tube or a 96 deep-well plate and centrifuged at 2000×g for five minutes. The chondrocyte pellets were incubated at 37° C. in a humidified atmosphere of 5% CO2 for two to three weeks with a medium change every other day.
(§2) As an alternative to using calf articular cartilage, a commercial Alginate Recovered Chondrocytes (ARC) system was also used (Articular Engineering, LLC (Northbrook, Ill.)). Use of the commercial system cut down on labor and time in producing chondrocyte pellet. This system produced cartilaginous tissue in vitro using bovine chondrocytes. The first step consisted of culturing chondrocytes in alginate under conditions optimal for the formation of a cell-associated matrix (CM). The second step allowed these cells with their CM, after recovery, to rapidly form and become integrated into a solid mass of cartilage on a porous insert within two weeks. This tissue is rich in cells surrounded by a cell-associated matrix that is degraded rapidly when the cells are exposed to IL-1. ARC tissues in 3 mm punches at delivery were first dispensed into a 96 deep-well plate, one punch per well, for compound treatment. The subsequent procedures were the same as those used for the chondrocyte pellets.
(§3) Chondrocyte pellets were washed once with 1 ml of Chondrocyte Stimulation Medium and equilibrated in the same medium at room temperature for fifteen to thirty minutes. Compounds were dissolved in H2O, Ethanol or dimethyl sulfoxide (DMSO) (10^−2 M) according to suppliers' instructions and further diluted with Chondrocyte Stimulation Medium to the required concentrations. DMSO concentrations in the culture media should not exceed 1%; this concentration of DMSO has no effect on cartilage proteoglycan metabolism in response to cytokines.
[…] At the end of the incubation, media and pellets were harvested and frozen for further analysis. Pellets were also fixed as needed in 4% (w/v) paraformaldehyde in PBS for histology analysis.
Glycosaminoglycan (GAG) levels in the culture media were determined by measuring the amount of polyanionic material reacting with 1,9-dimethylmethylene blue (DME) as detected by absorbance at 525 nm, using shark chondroitin sulfate as a standard. The DME blue dye-binding solution was prepared by dissolving 16 mg of DME blue in a solution containing 0.304% glycine, 0.23% sodium chloride (NaCl), 9.5 mM hydrochloric acid (HCl), pH=3.0 with absorbance at 525 equal to 0.31. Proteoglycans and proteoglycan metabolites in chondrocyte pellet were released by digesting the pellet with 125 μg/ml of papain in 0.1 M PBS, pH 6.0, 5 mM cysteine, 5 mM ethylene-diamine-tetra-acetic acid disodium salt (Na2EDTA) at 50° C. for overnight. Results are reported as either micrograms of GAG per milliliter or percent of total GAG released into culture medium.

[2] = drug content in the joints (Example VIII); assay type: in vivo, rabbit; conditions: at the time of analysis
Text: For each treatment group, four animals were included to provide pharmacokinetic data (available drug levels in blood and tissue). Prior to treatment administration, blood samples were collected and frozen for analysis. After gross observation, the joints were removed and frozen for analysis.

[3] = tested on: chondrocytes; assay type: cell-based; conditions: bovine, 100000 nM
Text: as §1, §2, §3
The pellets were first treated with compounds at desired concentrations at 37° C. for one hour and then incubated for three to five days in the absence or presence of 10 ng/ml of IL-1β. At the end of the incubation, media and pellets were harvested and frozen for further analysis. Pellets were also fixed as needed in 4% (w/v) paraformaldehyde in PBS for histology analysis.
The LDH activity was determined colorimetrically in an enzymatic test based on the conversion of lactic acid to pyruvate in the presence of chromagenic substrate tetrazolium salt INT that was reduced to formazan.

[4] = tested on: rabbit anterior cruciate ligament transection (ACLT) model of osteoarthritis; assay: ACLT model, SCIO-469 (Example VIII); assay type: in vivo
Description: The formulation of the highest concentration was diluted into the lower concentrations using ORTHOVISC®. Once prepared, the formulations were stored at 4° C. The study design consisted of an n=12 per group. The SCIO-469 (SD 469) was suspended in ORTHOVISC®. A total of 160 μl was injected at each administration. The intra-articular injections were performed according to the ACLT model. However, control groups either received no injections or received the ORTHOVISC® vehicle delivered once weekly for three weeks. Euthanasia was performed according to the ACLT model. However, the animals were euthanized nine weeks post ACLT with an intravenous injection of pentobarbital (60 mg/kg). […] At the time of sacrifice the following parameters were evaluated grossly (the scale follows in parenthesis): Each parameter was given a score. The combination of all parameters gave a Total Score (0-52). […] Lastly, an All Cartilage Effects Score was obtained. The score for All Cartilage Effects ranges from 0 to 40. The grades that compose this parameter are trochlear groove thickness and erosion, all the grades in All Condylar Effects, and all grades listed under tibial plateau. A higher score indicates more damage to the joint. A lower score indicates less damage or more cartilage preservation to the joint. Individual results for each parameter assessed were tabulated (data not shown).

## C[C@@H]1CN(Cc2ccc(F)cc2)[C@@H](C)CN1C(=O)c1cc2c(C(=O)C(=O)N(C)C)cn(C)c2cc1Cl [SCIO-469 (SD 469)]
[1]; ARC tissues stimulated with IL-1β
  inhibition of GAG degradation: no effect
[1]; Pellet Assay
  GAG Release: No effect
[2]
  drug content in the joints: no drug could be detected
[3]
  increase of LDH level: 121%
[4]; 0.5 μg/kg
  All Cartilage Effects (0-40), mean: 12.75
  All Condylar Effects (0-18), mean: 6.45
  All Tibial Plateau Effects (0-24), mean: 7.20
  All Trochlear Groove Effects (0-10), mean: 8.40
  Femoral Condyle % Surface Area Erosion (Lateral), mean score: 2.80
  Femoral Condyle % Surface Area Erosion (Medial), mean score: 0.90
  Femoral Condyle Depth of Erosion (Lateral), mean score: 2.00
  Femoral Condyle Depth of Erosion (Medial), mean score: 0.55
  Femoral Condyle Presence of Clefts, mean score: 0.20
  Tibial Plateau # of Osteophytes (Lateral), mean score: 1.50
  Tibial Plateau # of Osteophytes (Medial), mean score: 1.80
  Tibial Plateau % Surface Area Erosion (Lateral), mean score: 2.00
  Tibial Plateau % Surface Area Erosion (Medial), mean score: 0
  Tibial Plateau Depth of Erosion (Lateral), mean score: 1.90
  Tibial Plateau Depth of Erosion (Medial), mean score: 0
  Tibial Plateau Presence of Clefts (Lateral), mean score: 0
  Tibial Plateau Presence of Clefts (Medial), mean score: 0
  Total Score (0-52), mean: 22.05
  Trochlear Groove # of Osteophytes, mean score: 3.00
  Trochlear Groove Erosion of Cartilage, mean score: 2.40
  Trochlear Groove Osteophyte Size, mean score: 3.00
  Trochlear Groove Thickening, mean score: 0
[4]; 5 μg/kg
  All Cartilage Effects (0-40), mean: 13.17
  All Condylar Effects (0-18), mean: 6.50
  All Tibial Plateau Effects (0-24), mean: 7.08
  All Trochlear Groove Effects (0-10), mean: 8.08
  Femoral Condyle % Surface Area Erosion (Lateral), mean score: 1.67
  Femoral Condyle % Surface Area Erosion (Medial), mean score: 1.67
  Femoral Condyle Depth of Erosion (Lateral), mean score: 1.96
  Femoral Condyle Depth of Erosion (Medial), mean score: 1.21
  Femoral Condyle Presence of Clefts, mean score: 0
  Tibial Plateau # of Osteophytes (Lateral), mean score: 1.08
  Tibial Plateau # of Osteophytes (Medial), mean score: 1.67
  Tibial Plateau % Surface Area Erosion (Lateral), mean score: 1.50
  Tibial Plateau % Surface Area Erosion (Medial), mean score: 0.58
  Tibial Plateau Depth of Erosion (Lateral), mean score: 1.63
  Tibial Plateau Depth of Erosion (Medial), mean score: 0.63
  Tibial Plateau Presence of Clefts (Lateral), mean score: 0
  Tibial Plateau Presence of Clefts (Medial), mean score: 0
  Total Score (0-52), mean: 21.67
  Trochlear Groove # of Osteophytes, mean score: 2.83
  Trochlear Groove Erosion of Cartilage, mean score: 2.17
  Trochlear Groove Osteophyte Size, mean score: 2.92
  Trochlear Groove Thickening, mean score: 0.17
[4]; 50 μg/kg
  All Cartilage Effects (0-40), mean: 8.32
  All Condylar Effects (0-18), mean: 4.18
  All Tibial Plateau Effects (0-24), mean: 5.41
  All Trochlear Groove Effects (0-10), mean: 6.91
  Femoral Condyle % Surface Area Erosion (Lateral), mean score: 1.18
  Femoral Condyle % Surface Area Erosion (Medial), mean score: 1.27
  Femoral Condyle Depth of Erosion (Lateral), mean score: 1.05
  Femoral Condyle Depth of Erosion (Medial), mean score: 0.68
  Femoral Condyle Presence of Clefts, mean score: 0
  Tibial Plateau # of Osteophytes (Lateral), mean score: 0.91
  Tibial Plateau # of Osteophytes (Medial), mean score: 1.73
  Tibial Plateau % Surface Area Erosion (Lateral), mean score: 1.09
  Tibial Plateau % Surface Area Erosion (Medial), mean score: 0.36
  Tibial Plateau Depth of Erosion (Lateral), mean score: 1.14
  Tibial Plateau Depth of Erosion (Medial), mean score: 0.18
  Tibial Plateau Presence of Clefts (Lateral), mean score: 0
  Tibial Plateau Presence of Clefts (Medial), mean score: 0
  Total Score (0-52), mean: 16.50
  Trochlear Groove # of Osteophytes, mean score: 2.64
  Trochlear Groove Erosion of Cartilage, mean score: 1.36
  Trochlear Groove Osteophyte Size, mean score: 2.91
  Trochlear Groove Thickening, mean score: 0
[4]; 0.5, 5 or 50 μg/kg, direct injection into a diseased joint
  utility in ACLT model, gross observations: did not demonstrate the utility
